Laboratory results taken from publication PMC12386809, “Phenanthrene Monomers and Dimers from Juncus tenuis with Antiproliferative Activity and Synergistic Effect with Doxorubicin Against Human Colon Cancer Cell Lines” (International Journal of Molecular Sciences, 2025).
Converted amounts (≈) assume the structure as drawn. Read-outs that look alike come from different tables or passages of the source.

What was measured:
[1] = system: COLO 205 (doxorubicin-sensitive) human colonic adenocarcinoma cells; assay: MTT antiproliferative assay, COLO 205; assay type: cell-based; conditions: read-out: IC50 (µM) ± SD COLO 205
Description: (§1) The antiproliferative effects of the isolated phenanthrenes (compounds 1–19) were evaluated using human cancer cell lines, including doxorubicin-sensitive colonic adenocarcinoma COLO 205 and multidrug-resistant colonic adenocarcinoma COLO 320/MDR-LRP (which expresses P-glycoprotein [MDR1] and LRP), as well as non-cancerous human lung fibroblast CCD-19Lu cells. CCD-19Lu was chosen because it is a well-characterized, non-tumorigenic cell line commonly used to assess general cytotoxicity. Moreover, data from the literature support the use of lung fibroblast cell lines—including CCD-19Lu—as normal controls in studies involving colon cancer cells such as Colo 205 and Colo 320 [33]. The thiazolyl blue tetrazolium bromide (MTT) assay was employed to determine the concentration of each compound required to inhibit 50% of the cell viability (IC50), as summarized in Table 3.
(§2) The human colon adenocarcinoma cells—COLO 205 (CCL-222, doxorubicin-sensitive) and COLO 320/MDR-LRP (ATCC-CCL-220.1, multidrug-resistant, expressing P-gp)—were cultured in RPMI 1640 medium supplemented with 10% heat-inactivated fetal bovine serum, 2 mM of L-glutamine, 1 mM of sodium pyruvate, and 100 mM of HEPES. The non-cancerous human lung fibroblast cell line CCD-19Lu was maintained in Eagle’s Minimal Essential Medium (EMEM; containing 4.5 g/L of glucose) supplemented with a non-essential amino acid mixture, selected vitamins, and 10% heat-inactivated fetal bovine serum. All of the cell lines were detached using 0.25% trypsin and 0.02% EDTA for 5 min at 37 °C. The cell lines were obtained from LGC Promochem (Teddington, England).
(§3) Human colonic adenocarcinoma cell lines—doxorubicin-sensitive COLO 205 and multidrug-resistant COLO 320—as well as the non-cancerous human lung fibroblast cell line CCD-19Lu were used to evaluate the effects of the test compounds on cell proliferation. The assays were conducted in 96-well flat-bottomed microtiter plates. Stock solutions of the compounds were prepared in dimethyl sulfoxide (DMSO), with the final DMSO concentration kept below 1% in all samples. The compounds were diluted in 100 µL of the appropriate culture medium. Adherent cells were cultured in EMEM supplemented with 10% heat-inactivated fetal bovine serum and seeded into 96-well plates at a density of 6 × 10^3 cells per 100 µL per well. The cells were allowed to adhere for 24 h at 37 °C in a humidified incubator with 5% CO2. After incubation, the medium was removed and replaced with 100 µL of fresh medium. Serial dilutions of the compounds were prepared in separate plates and added to the cells, starting from a concentration of 100 µM with twofold serial dilutions (final concentration range: 100–0.19 µM). The cells were then incubated for 72 h at 37 °C. At the end of the incubation period, 20 µL of thiazolyl blue tetrazolium bromide (MTT) solution (5 mg/mL, Sigma) was added to each well. After 4 h of incubation at 37 °C, 100 µL of 10% sodium dodecyl sulfate (SDS) in 0.01 M HCl was added to solubilize the formazan crystals, and the plates were incubated overnight at 37 °C. Cell viability was assessed by measuring the optical density (OD) at 540/630 nm using a Multiscan EX ELISA reader (Thermo Labsystems, Cheshire, WA, USA).
(§4) The inhibitory concentration that reduced cell growth by 50% (IC50) was determined from the dose–response curves. The percent inhibition was calculated using the formula100 − ((OD_sample − OD_medium control)/(OD_cell control − OD_medium control)) × 100
(§5) Dose–response curves were generated by plotting the percent inhibition against the logarithm of the compound concentrations and fitted using Prism5 software (Version 6, GraphPad Software Inc., San Diego, CA, USA). The IC50 values were derived from four independent experiments conducted in parallel for each cell line and are reported as the mean values.

[2] = system: CCD-19Lu non-cancerous human lung fibroblast cells; assay: MTT antiproliferative assay, CCD-19Lu; assay type: cell-based; conditions: 72 h, CCD-19Lu non-tumorigenic fibroblasts, read-out: IC50 (µM) ± SD CCD-19Lu
Description: as §1, §2, §3, §4, §5

[3] = system: multidrug-resistant COLO 320 cells; assay: Drug combination assay with doxorubicin (Chou-Talalay, MTT); assay type: cell-based, human; conditions: for CI at ED50 (combination index): combination with doxorubicin, COLO 320, 72 h, Chou-Talalay; for Interaction: interaction with doxorubicin in COLO 320, class from CI
Description: One promising approach involves the discovery of new bioactive natural products. To explore this, a chemosensitivity assay was conducted to examine the in vitro interactions between the isolated compounds and the antineoplastic agent doxorubicin, a substrate of P-glycoprotein (P-gp). A combination chemotherapy model was applied using human COLO 320 colon carcinoma cells. The combination index (CI), calculated according to the Chou–Talalay method, was used to evaluate drug–drug interactions, classifying them as synergistic (CI < 1), additive (CI = 1), or antagonistic (CI > 1) (Table 4).
The multidrug-resistant COLO 320 cell line was used to perform the drug combination assay. Doxorubicin (2 mg/mL, Teva Pharmaceuticals, Budapest, Hungary) was serially diluted horizontally, starting with 8.6 µM. The resistance modifier was subsequently diluted vertically, with the starting concentration determined based on the IC50 value. Doxorubicin was diluted horizontally in 100 µL, while the resistance modifiers were diluted vertically in 50 µL in the microtiter plate. The compounds and doxorubicin were prepared as separate dilutions. The cells were seeded at a density of 6 × 10^3 cells per well into 100 µL of medium and incubated for 24 h at 37 °C in a 5% CO2 atmosphere prior to treatment. After this period, the culture medium was removed, and 50 µL of fresh medium was added to each well, followed by the addition of 50 µL of the diluted compounds, resulting in a final volume of 200 µL per well. The plates were then incubated for 72 h at 37 °C under 5% CO2. The cell viability was assessed at the end of incubation using the MTT assay, as described previously. Drug interactions were analyzed using CompuSyn software (Version 1.00).
The dose–response curves for individual agents and their combinations were fitted to a linear model based on the median-effect equation to calculate the median effective dose (IC50) and the slope (m). The quality of the fit was evaluated using the linear correlation coefficient (r), and only data with r > 0.90 are reported. The extent of drug interaction was quantified using the combination index (CI), where CI ≈ 1 indicated an additive effect, CI < 1 signified synergy, and CI > 1 denoted antagonism.

[4] = system: HT22 cells (mouse hippocampal neuroblastoma cell line); design: method as in doi:10.1007/s11101-018-9561-5, PMID 25794817; conditions: 100 µM, 24 h; cited from earlier work
[5] = system: COLO 320/MDR-LRP multidrug-resistant human colonic adenocarcinoma cells; assay: MTT antiproliferative assay, COLO 320; assay type: cell-based; conditions: COLO 320 (multidrug-resistant), read-out: IC50 (µM) ± SD COLO 320
Description: as §1, §2, §3, §4, §5

[6] = system: HeLa cells; design: method as in PMID 33348712; conditions: cited from earlier work
[7] = system: NCI 90 KB (human epidermoid nasopharynx carcinoma) cells; design: method as in PMID 830696; conditions: NCI 90 KB cells; cited from earlier work
[8] = system: MCF-7; design: method as in PMID 26072042; conditions: cited from earlier work
[9] = system: SMMC-7721; design: method as in PMID 26072042; conditions: cited from earlier work
[10] = system: HepG-2; design: method as in PMID 26072042; conditions: cited from earlier work
[11] = system: HepG2 cells; conditions: cited from earlier work
[12] = design: method as in PMID 31125040; conditions: cited from earlier work

Molecule | IC50 ([1]; Homo sapiens, COLO 205, 72 h) | IC50 [2] | CI at ED50 (combination index) [3] | Interaction [3] | decrease in MTT reduction [4] | IC50 ([5]; Homo sapiens, COLO 320, 72 h) | further results
C=Cc1c(C)c(O)cc2c1ccc1c(C)c(O)ccc12 [Compound 8, dehydrojuncuenin B] | 20.7 ± 0.47 µM | 22.8 ± 0.55 µM | 2.126 | antagonism (1.45 < CI < 3.3, antagonism) | 8.4% | 17.9 ± 1.59 µM | 
C=Cc1cc(O)cc2c1-c1ccc(O)c(C)c1CC2 [Compound 10, effusol] | 52.7 µM | 96 ± 2.66 µM | 1.123 | slight antagonism | 9.9% | 49.7 µM | IC50 ([1]; 72 h): 52.7 ± 1.85 µM; IC50 [6]: 2300 nM; IC50 ([5]; 72 h): 49.7 ± 2.12 µM
C=Cc1c(C)c(O)cc2c1-c1ccc(O)c(C)c1CC2 [Compound 11, juncusol] | 31.9 ± 1.91 µM | 44.4 ± 2.82 µM | 0.582 | synergism (0.3 < CI < 0.7, synergism) | 25.4% | 36.2 ± 3.81 µM | IC50 [6]: 500 nM; ED50 [7]: 0.3 µg/mL (≈ 1.13 µM)
C=Cc1c(CO)ccc2c1CCc1c-2ccc(O)c1C [Compound 18] | 50.2 ± 0.74 µM | 70.8 ± 3.25 µM | 0.189 |  |  | 31.5 ± 2.65 µM | 
C=Cc1cc(O)cc2c1-c1cc(-c3c(O)cc(C=C)c4c3ccc3c(C)c(O)ccc34)c(O)c(C)c1CC2 [effususin B] |  |  |  |  |  |  | IC50 [8]: 12.5 µM; IC50 [9]: 13.6 µM; IC50 [10]: 12.9 µM
C=Cc1c(C)c(O)cc2c1CCc1c-2ccc(O)c1C [juncuenin B, reference compound] |  |  |  |  | 13.6% |  | 
C=CC1=C(C)C(=O)C=C2c3ccc(O)c(C)c3CCC21O (stereo not shown) [juncuenin D, reference compound] |  |  |  |  | 23.7% |  | 
juncunol |  |  |  |  |  |  | apoptotic cells ([11]; HepG2, concentration-dependent (IC50 value ± 25%)): increase in the number of apoptotic cells; cell cycle arrest ([11]; HepG2): G0/G1 phase; Δψm ([11]; HepG2): decrease in Δψm; IC50 ([11]; HepG2 cells): 18 µM; hemolytic properties [12]: no hemolytic properties
